Experimental findings from patent US20250352615A1, “COMPOSITIONS AND METHODS FOR THE MODULATION OF PIEZO1 AND TRPV4” (Duke University, priority 2021, published 2025) are described below.

Assay [1] has as its target T1, Piezo1 (Homo sapiens, UniProt Q92508).
T1 construct: Fresh, human pancreatic tissue was digested with collagenase as described above with modifications; endogenous in cells; host or cells: primary human pancreatic stellate cells from fresh human pancreatic tissue
Briefly: Calcium imaging of Piezo1-mediated [Ca2+]i in human PSCs. The settings on record: Yoda1 25 μM, quiescent PSCs. The format is cell-based. The procedure: Mouse and human PSCs were isolated using collagenase digestion. Modified Krebs Henseleit Buffer (KHB) solution (100 mL) was prepared as previously described by Romac et al., Nat. Commun. 9(1):1715 (2018). Pancreatic tissue was digested with 2 mg of collagenase NB 8 (SERVA, catalog 17456) dissolved in 10 mL of modified KHB solution containing 1 mg soybean trypsin inhibitor (SBTI 1-S; Millipore Sigma, catalog T9003) and 20 mg BSA (Thermo Fisher Scientific; BP1600-100). Digestion solution (5 mL) was used to inflate the pancreas. Pancreas with 5 mL of digestion solution was incubated in a shaking water bath for 10 minutes at 37° C. The solution was then discarded. The pancreas tissue was cut into small pieces and digested with fresh 5 mL digestion buffer. Tissue was incubated in a shaking water bath for 40 minutes at 37° C. The cells were then separated from tissue by pipetting up-down with a 10 mL pipette and passed sequentially through a 70 μm and a 40 μm cell strainer. The filtrate was centrifuged at 150×g for 3 minutes at room temperature. The cells were washed with 10 mL Leibovitz's media (Thermo Fisher Scientific, catalog 11415-064), passed through a 20 μm filter, and centrifuged at 80×g for 3 minutes at room temperature. The supernate was removed, and isolated stellate cells were plated on a thin-layered Matrigel-coated glass bottom culture plate (MatTek, P35G-0-14-C). […] The cell viability following Yoda1 treatment was analyzed using the Live/Dead cell imaging kit (Thermo Fisher Scientific, catalog R37601). […]
Fluid shear stress and mechanical pushing applied to stellate cells were achieved as previously described by Wang et al., J. Clin. Invest. […] The fluid shear stress (T) was calculated using the formula: τ=η×[…] φ for μ-Slide I 0.4 Luer and τ=η×330.4 φ for μ-Slide I 0.2 Luer, where r represents viscosity of the medium and φ represents flow rate (according to the manufacturer's instructions, Ibidi). […]

Assay [2] deals with T2, Piezo1 (Mus musculus, UniProt E2JF22).
T2 construct: endogenous in cells; host or cells: freshly isolated mouse pancreatic acini (WT = Piezo1 fl/fl on a C57BL/6J background)
T2 sequence (E2JF22 whole entry): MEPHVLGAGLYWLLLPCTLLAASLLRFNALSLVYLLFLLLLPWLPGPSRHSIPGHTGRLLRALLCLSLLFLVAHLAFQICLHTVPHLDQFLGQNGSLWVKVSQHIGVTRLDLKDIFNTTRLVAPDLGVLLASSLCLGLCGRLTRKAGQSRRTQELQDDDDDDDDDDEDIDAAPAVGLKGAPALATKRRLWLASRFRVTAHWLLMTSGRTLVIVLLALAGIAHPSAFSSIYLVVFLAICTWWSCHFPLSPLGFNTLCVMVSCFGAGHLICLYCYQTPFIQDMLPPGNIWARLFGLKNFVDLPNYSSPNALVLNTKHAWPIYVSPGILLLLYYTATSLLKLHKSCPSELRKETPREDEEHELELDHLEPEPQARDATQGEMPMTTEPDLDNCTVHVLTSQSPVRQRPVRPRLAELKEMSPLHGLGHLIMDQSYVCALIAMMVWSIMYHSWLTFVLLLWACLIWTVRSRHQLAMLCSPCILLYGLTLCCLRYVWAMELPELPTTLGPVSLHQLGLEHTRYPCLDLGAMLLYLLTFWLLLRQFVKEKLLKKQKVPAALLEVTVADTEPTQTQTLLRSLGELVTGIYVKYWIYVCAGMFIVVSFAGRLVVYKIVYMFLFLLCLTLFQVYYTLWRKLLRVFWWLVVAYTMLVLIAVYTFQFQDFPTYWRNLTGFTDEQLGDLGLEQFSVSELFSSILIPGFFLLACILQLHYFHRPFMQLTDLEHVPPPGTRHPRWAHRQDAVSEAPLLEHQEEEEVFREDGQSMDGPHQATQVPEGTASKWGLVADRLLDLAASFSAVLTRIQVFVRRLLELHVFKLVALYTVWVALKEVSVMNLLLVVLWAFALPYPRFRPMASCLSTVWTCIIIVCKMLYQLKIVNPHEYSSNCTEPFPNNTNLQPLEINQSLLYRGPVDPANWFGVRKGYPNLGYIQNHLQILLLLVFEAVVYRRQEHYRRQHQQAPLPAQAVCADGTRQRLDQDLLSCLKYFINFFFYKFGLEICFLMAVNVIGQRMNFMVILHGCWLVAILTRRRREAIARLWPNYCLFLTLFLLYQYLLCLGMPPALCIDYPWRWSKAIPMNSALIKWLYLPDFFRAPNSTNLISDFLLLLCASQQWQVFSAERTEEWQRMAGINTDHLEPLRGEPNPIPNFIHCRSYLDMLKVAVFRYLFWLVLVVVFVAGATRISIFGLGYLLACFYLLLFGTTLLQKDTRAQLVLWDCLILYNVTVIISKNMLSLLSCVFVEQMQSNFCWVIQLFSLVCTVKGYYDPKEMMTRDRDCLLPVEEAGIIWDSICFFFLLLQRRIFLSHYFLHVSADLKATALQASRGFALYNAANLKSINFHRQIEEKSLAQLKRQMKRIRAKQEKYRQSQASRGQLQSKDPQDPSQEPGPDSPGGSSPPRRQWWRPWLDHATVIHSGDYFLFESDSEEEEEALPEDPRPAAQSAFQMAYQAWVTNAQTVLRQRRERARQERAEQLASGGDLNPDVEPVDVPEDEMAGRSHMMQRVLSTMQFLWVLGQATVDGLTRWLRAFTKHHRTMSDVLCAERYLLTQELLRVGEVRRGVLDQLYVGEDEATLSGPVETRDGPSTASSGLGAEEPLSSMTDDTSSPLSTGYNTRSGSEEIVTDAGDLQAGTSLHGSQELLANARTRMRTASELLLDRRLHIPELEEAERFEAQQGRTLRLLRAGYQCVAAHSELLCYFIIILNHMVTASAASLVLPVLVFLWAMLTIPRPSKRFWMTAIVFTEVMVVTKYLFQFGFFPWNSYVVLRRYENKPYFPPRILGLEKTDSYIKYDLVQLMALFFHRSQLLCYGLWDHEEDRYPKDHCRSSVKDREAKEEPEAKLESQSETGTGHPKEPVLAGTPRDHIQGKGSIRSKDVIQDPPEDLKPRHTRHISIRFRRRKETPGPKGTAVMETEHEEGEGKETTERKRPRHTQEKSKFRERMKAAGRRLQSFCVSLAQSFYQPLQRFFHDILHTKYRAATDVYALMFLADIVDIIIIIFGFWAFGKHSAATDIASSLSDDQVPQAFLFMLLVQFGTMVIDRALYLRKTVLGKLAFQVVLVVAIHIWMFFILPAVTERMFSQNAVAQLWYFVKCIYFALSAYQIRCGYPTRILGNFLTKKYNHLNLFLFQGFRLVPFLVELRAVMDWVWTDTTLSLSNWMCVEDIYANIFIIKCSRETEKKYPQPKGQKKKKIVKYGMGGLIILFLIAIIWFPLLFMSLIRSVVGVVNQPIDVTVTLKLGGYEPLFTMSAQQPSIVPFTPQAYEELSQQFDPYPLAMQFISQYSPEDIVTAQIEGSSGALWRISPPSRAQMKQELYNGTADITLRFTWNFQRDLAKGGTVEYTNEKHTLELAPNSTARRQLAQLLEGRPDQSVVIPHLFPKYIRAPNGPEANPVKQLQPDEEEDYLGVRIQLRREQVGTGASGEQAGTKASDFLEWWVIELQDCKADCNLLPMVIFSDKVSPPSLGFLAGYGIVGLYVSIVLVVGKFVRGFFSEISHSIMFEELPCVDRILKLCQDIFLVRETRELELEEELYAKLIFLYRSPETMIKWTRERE
Briefly: Calcium imaging of Piezo1-mediated [Ca2+]i in mouse PSCs. It counts as cell-based. The procedure: Mouse and human PSCs were isolated using collagenase digestion. Modified Krebs Henseleit Buffer (KHB) solution (100 mL) was prepared as previously described by Romac et al., Nat. Commun. 9(1):1715 (2018). Pancreatic tissue was digested with 2 mg of collagenase NB 8 (SERVA, catalog 17456) dissolved in 10 mL of modified KHB solution containing 1 mg soybean trypsin inhibitor (SBTI 1-S; Millipore Sigma, catalog T9003) and 20 mg BSA (Thermo Fisher Scientific; BP1600-100). Digestion solution (5 mL) was used to inflate the pancreas. Pancreas with 5 mL of digestion solution was incubated in a shaking water bath for 10 minutes at 37° C. The solution was then discarded. The pancreas tissue was cut into small pieces and digested with fresh 5 mL digestion buffer. Tissue was incubated in a shaking water bath for 40 minutes at 37° C. The cells were then separated from tissue by pipetting up-down with a 10 mL pipette and passed sequentially through a 70 μm and a 40 μm cell strainer. The filtrate was centrifuged at 150×g for 3 minutes at room temperature. The cells were washed with 10 mL Leibovitz's media (Thermo Fisher Scientific, catalog 11415-064), passed through a 20 μm filter, and centrifuged at 80×g for 3 minutes at room temperature. The supernate was removed, and isolated stellate cells were plated on a thin-layered Matrigel-coated glass bottom culture plate (MatTek, P35G-0-14-C). Before plating the cells, Matrigel solution (Corning, catalog 354234) at a ratio of 1.5:100 DMEM/F12 (Thermo Fisher Scientific, catalog 11330-032) was poured onto the culture plate and incubated for 2 hr at 37° C. to form a thin layer of Matrigel coating. Matrigel mixture was removed, and the plate was washed with PBS before cells were plated. Cell culture media, DMEM/F12 with 5% FBS was used for mouse stellate cells. Fresh, human pancreatic tissue was digested with collagenase as described above with modifications. Collagenase (2.5 mg) in 10 mL of modified KHB solution was used for digestion. The digested tissues were filtered through a 100 μm cell strainer. The cells were cultured with DMEM/F12 with 10% FBS in a Matrigel-coated plate. After 24 hr, the cell media was replaced with fresh media to remove unattached and dead cells. After 2 days, cells were immunostained for GFAP and used for experiments. Perinuclear fat droplets were stained with BODIPY 493/503 (4,4-Difluoro-1,3,5,7,8-Pentamethyl-4-Bora-3a,4a-Diaza-s-Indacene; Invitrogen, catalog D3922) to confirm stellate cell quiescence. The cell viability following Yoda1 treatment was analyzed using the Live/Dead cell imaging kit (Thermo Fisher Scientific, catalog R37601). RNAs were isolated using the RiboPure Kit (Invitrogen, catalog AM1924) according to manufacturer's instructions.
Fluid shear stress and mechanical pushing applied to stellate cells were achieved as previously described by Wang et al., J. Clin. Invest. 126(12): 4527-4536 (2016). Parallel-plate fluid flow chambers (μ-Slide I 0.4 Luer, or μ-Slide I 0.2 Luer from Ibidi) were used for fluid shear stress experiments. The fluid shear stress (T) was calculated using the formula: τ=η×[…] φ for μ-Slide I 0.4 Luer and τ=η×330.4 φ for μ-Slide I 0.2 Luer, where r represents viscosity of the medium and φ represents flow rate (according to the manufacturer's instructions, Ibidi). Mechanical pushing was achieved by applying a blunt borosilicate glass pipette once to the cell membrane with a deflection of 2-3 μm for 1 second using a micromanipulator (World Precision Instruments).
Calcium 6-QF (Molecular Devices) dye was used for live-cell calcium imaging as described by Romac et al., Nat. Commun. 9(1):1715 (2018). Cells were imaged in HBSS buffer with 2 mM Ca^2+. Faintly and highly fluorescent loaded cells were excluded from analysis. […]

For another assay, the system named is PLA2. Briefly: PLA2 activity in living pancreatic acini (Bis-BODIPY FL C11-PC). The format is cell-based, mouse. The settings on record: Yoda1 25 μM. Here is the method: The fluorogenic PLA2 substrate (Bis-BODIPY FL C11-PC) (Thermo Fisher Scientific; B7701) was used to monitor PLA2 activity in living cells. The pancreatic acini were incubated with Bis-BODIPY FL C11-PC in HBSS buffer with 2 mM Ca^2+ for 30 minutes. HBSS buffer with 2 mM Ca^2+ was used during imaging. A Zeiss Axio observer Z1 with a high-sensitivity EMCCD camera with a ×40/0.75 EC-Plan-NeoFluar DIC objective was used to capture the Z-stack images with stack thickness of 4 μm at an interval of 10 seconds with 480 nm excitation and 525 nm emission filter. The captured images were analyzed with MetaMorph software (Molecular Devices).

Assay [3] deals with T2, Piezo1. Briefly: Calcium imaging of Yoda1 (Piezo1)-mediated [Ca2+]i in pancreatic acini. The format is cell-based. The settings on record: pancreatic acini, bath calcium 2 mM, Yoda1 25 μM. Here is the method: Mouse pancreatic acini were isolated using a standard collagenase digestion protocol. Isolated acini were plated on a thin-layered, Matrigel-coated, glass-bottom, culture plate (MatTek, P35G-0-14-C). Freshly isolated acini were used in each experiment.
Calcium imaging in pancreatic acini was performed as previously described. The chemicals used in calcium imaging experiments included the following: Yoda1 (Tocris; 5586), GsMTx4 (Abcam; ab141871), 5′,6′-EET (Santa Cruz Biotechnology; sc-221066), AA (Millipore Sigma; A3611), HC067047 (Tocris; 4100), GSK1016790A (Millipore Sigma; G0798), RN1734 (Tocris; 3746), AACOCF3 (Tocris; 1462), YM26734 (Tocris; 2522), GF109203X (Tocris; 0741), and CCK8 (Sigma-Aldrich).

Molecules are shown by their SMILES.

T1 sequence (Q92508 whole entry): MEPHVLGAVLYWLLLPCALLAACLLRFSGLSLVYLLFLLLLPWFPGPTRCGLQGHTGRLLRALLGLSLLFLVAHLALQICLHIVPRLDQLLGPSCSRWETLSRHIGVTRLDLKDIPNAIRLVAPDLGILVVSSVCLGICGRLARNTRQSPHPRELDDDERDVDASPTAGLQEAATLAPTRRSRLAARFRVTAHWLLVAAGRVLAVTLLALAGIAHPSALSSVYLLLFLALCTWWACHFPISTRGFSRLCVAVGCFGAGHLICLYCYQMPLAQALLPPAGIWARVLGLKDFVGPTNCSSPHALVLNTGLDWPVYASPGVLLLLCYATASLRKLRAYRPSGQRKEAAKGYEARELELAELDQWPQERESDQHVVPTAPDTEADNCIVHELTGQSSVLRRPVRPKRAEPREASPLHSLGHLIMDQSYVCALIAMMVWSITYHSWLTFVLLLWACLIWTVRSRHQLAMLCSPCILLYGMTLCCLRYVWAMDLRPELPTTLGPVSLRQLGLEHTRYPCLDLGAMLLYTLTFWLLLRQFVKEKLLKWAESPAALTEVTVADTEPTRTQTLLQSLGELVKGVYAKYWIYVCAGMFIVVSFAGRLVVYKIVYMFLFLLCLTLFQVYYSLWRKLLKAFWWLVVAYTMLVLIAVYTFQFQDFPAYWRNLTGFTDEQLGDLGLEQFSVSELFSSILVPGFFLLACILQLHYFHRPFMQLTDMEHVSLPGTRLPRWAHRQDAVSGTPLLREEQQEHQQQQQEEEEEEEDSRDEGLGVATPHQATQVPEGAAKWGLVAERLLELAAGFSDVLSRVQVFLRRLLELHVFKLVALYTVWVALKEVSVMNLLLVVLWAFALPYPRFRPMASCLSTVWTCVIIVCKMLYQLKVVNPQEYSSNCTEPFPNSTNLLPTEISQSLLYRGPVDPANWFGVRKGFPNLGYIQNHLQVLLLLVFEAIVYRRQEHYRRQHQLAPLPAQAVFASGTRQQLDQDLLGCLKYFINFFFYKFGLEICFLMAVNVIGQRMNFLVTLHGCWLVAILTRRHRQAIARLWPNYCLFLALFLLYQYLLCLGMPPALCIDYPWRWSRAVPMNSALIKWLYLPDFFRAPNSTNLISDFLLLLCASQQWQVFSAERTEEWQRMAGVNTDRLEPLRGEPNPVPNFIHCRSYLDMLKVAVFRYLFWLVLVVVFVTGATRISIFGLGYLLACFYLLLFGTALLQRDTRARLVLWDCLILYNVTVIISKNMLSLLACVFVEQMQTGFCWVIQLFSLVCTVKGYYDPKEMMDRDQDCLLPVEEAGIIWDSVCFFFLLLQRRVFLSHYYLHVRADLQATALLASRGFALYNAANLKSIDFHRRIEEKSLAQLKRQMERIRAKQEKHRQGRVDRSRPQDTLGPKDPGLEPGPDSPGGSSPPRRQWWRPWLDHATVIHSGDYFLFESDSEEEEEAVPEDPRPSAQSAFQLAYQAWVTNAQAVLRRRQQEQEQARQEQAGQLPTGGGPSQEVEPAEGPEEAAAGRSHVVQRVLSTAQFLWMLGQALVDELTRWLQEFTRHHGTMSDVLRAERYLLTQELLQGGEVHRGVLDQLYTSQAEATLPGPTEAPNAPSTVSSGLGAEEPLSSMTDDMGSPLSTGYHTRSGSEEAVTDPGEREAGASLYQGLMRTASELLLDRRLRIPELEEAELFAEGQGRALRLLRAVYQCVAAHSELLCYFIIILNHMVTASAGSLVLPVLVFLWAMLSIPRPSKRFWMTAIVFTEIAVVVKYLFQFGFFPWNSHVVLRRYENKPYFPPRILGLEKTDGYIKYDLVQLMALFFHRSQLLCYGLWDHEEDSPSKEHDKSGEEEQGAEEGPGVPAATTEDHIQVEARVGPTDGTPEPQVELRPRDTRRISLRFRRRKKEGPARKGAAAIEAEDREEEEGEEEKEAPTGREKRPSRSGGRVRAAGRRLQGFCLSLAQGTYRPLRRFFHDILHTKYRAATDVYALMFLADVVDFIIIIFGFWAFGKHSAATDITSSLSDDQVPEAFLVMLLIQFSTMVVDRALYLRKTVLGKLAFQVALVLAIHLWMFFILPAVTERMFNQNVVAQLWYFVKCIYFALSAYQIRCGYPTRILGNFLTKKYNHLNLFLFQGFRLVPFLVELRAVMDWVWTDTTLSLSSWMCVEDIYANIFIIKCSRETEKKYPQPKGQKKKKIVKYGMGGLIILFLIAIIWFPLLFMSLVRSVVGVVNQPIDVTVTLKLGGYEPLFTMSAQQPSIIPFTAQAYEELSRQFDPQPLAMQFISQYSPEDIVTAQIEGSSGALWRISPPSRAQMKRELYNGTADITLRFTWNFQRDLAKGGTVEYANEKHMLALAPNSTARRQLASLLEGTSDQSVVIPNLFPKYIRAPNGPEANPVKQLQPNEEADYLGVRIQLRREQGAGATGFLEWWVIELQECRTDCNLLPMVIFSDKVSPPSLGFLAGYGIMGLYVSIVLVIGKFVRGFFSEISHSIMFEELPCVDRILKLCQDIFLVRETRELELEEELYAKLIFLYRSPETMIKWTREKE

As to `Clc1cccc(Cl)c1CSc1nnc(-c2cnccn2)s1` [Yoda1], the “[Ca2+]i response to Yoda1” value at Piezo1 [1] was “caused calcium overload in quiescent pancreatic stellate cells”; on Piezo1 [2] (mouse PSCs), “dose-dependent increases in [Ca^2+]i elevation”; on Piezo1 [3] it was “initial transient Ca^2+ rise, followed by sustained intracellular calcium elevation”. Moreover, the “Yoda1-stimulated [Ca2+]i increase in Piezo1-deleted PSCs” value on Piezo1 [2] (Yoda1 25 μM, Piezo1GFAP-KO) is “absent in Piezo1-deleted PSCs”. The “PLA2 activation in acini from Piezo1aci-KO mice” value in the assay with PLA2 is given as “did not stimulate PLA2 activation”. The “onset of PLA2 activation after application” value in the assay on PLA2 was no more than 30 s. The “time to plateau of PLA2 activity” value with PLA2 was determined as 4 min. In addition, in the assay on PLA2 (WT acini), the “intensity of fluorogenic PLA2 substrate (PLA2 activity)” value is reported as “markedly increased the intensity of the fluorogenic PLA2 substrate”.
